Assay results reported in publication PMC11256326, “Discovery of Heparin Mimetic, Potent, and Selective Inhibitors of Human Clotting Factor XIIIa” (ACS Omega, 2024).

Tests used:
normal human plasma = assay: activated partial thromboplastin time (APTT) of normal human plasma; assay type: biochemical; details: for APTT2X (concentration required to double APTT): normal human plasma, in vitro
Protocol: To further evaluate the selectivity as well as the potential toxicity of inhibitors, we studied their effects on the clotting times of normal human plasma as well as their effects on the proliferation of three cell lines. On the one hand, the inhibitors’ effects on activated partial thromboplastin time (APTT) and prothrombin time (PT) were measured, as described earlier under in vitro conditions,[52]−[55] using variable concentrations (0–2000 μM) (Table 3). […] On the other hand, the antiproliferative properties of inhibitors 13 and 16 were evaluated in three cell lines of breast (MCF-7), intestine (CaCo-2), and kidney (HEK-293) (Figure 5B), as described earlier.[56] […] Overall, inhibitor 16 can be considered for further development as a potent, selective, and nontoxic inhibitor of human FXIIIa.
Clotting times, including activated partial thromboplastin time (APTT) and prothrombin time (PT), were assessed in normal human plasma utilizing the BBL Fibrosystem fibrometer from Becton–Dickinson, as detailed in previous publications.[51]−[54] For the PT assay, thromboplastin-D was dissolved in 4 mL of highly purified water and then warmed to 37 °C. Subsequently, 10 μL of the inhibitor was added to 90 μL of normal human plasma and incubated for 30 s. Following this, 200 μL of prewarmed PT reagent was added, and the clotting time was recorded. In the APTT assay, 10 μL of the inhibitor was combined with 90 μL of normal human plasma and 100 μL of prewarmed APTT reagent (0.2% ellagic acid). After incubation for 4 min at 37 °C, clotting was initiated by adding 100 μL of prewarmed 0.025 M CaCl2, and the clotting time was documented. Multiple concentrations of each molecule were employed in both assays to establish a concentration vs effect curve.

FXIIIa = biological target: T1, FXIIIa (Homo sapiens, UniProt P00488); assay: bisubstrate, fluorescence-based trans-glutamination assay; assay type: biochemical; details: for HS (Hill slope), FXIIIa inhibition: logistic fit eq 1; for IC50: pH 7.4, 37 °C, substrates dansylcadaverine and N,N-dimethylcasein
T1 construct: purchased Haematologic Technologies; host or cells: human plasma
T1 sequence (P00488 39-732 limits assumed): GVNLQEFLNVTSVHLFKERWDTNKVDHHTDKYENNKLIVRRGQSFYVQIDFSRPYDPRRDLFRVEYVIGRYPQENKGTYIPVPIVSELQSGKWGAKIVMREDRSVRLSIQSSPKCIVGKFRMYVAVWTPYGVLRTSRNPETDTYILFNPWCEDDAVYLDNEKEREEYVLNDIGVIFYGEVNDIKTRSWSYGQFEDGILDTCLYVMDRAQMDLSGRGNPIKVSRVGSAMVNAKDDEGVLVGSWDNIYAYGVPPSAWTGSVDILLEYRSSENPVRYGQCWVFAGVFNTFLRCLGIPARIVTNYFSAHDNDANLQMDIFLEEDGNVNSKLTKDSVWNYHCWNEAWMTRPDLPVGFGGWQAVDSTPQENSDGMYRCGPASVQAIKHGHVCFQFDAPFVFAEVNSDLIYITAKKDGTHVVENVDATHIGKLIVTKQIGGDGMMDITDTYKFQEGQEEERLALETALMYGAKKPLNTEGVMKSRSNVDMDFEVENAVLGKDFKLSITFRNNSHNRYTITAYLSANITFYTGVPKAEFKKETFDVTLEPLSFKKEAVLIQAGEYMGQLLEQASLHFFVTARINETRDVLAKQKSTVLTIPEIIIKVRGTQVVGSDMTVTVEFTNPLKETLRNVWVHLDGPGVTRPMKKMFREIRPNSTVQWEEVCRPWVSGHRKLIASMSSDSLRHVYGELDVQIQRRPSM
From the text: A series of 27 sulfonated molecules (Figure 3) was screened for inhibition of human FXIIIa using a modified bisubstrate, fluorescence-based trans-glutamination assay, as described earlier.[36],[49] Dansylcadaverine and N,N-dimethylcasein were used as two substrates, which upon FXIIIa-dependence conjugation show a marked increase in fluorescence at 550 nm (λEX = 360 nm). The sulfonated molecules were structurally diverse given their number of anionic groups (mono- (inhibitors 24–27) to octa- (inhibitor 9)), number of building blocks (monomeric (molecules 26–29) to […] (inhibitor 14)), and the nature of the building block of oligomeric derivatives (benzamide derivatives (inhibitors 3–10, 24, and 25), triazine derivatives (inhibitors 11–14), and azo-naphthalene derivatives (molecules 15–22), and ureido-naphthalene derivative (23)) (Figure 3).
To measure the potency and efficacy of these inhibitors, the dose-dependence of FXIIIa inhibition was evaluated using logistic eq 1 (Table 1). The potency of inhibition refers to the IC50 (x-axis), whereas the efficacy refers to the net change in residual FXIIIa activity (ΔY%) (y-axis). Iodoacetamide, a nonselective inhibitor of thiol-containing enzymes, was used as a positive control.
To evaluate the effect of sulfonated molecules on human FXIIIa, a bisubstrate, fluorescence-based trans-glutamination assay was performed as we reported previously.[36],[49] Generally, 1 μL of the sulfonated molecule was diluted with 87 μL of pH 7.4 buffer (50 mM Tris-HCl, 1 mM CaCl2, 100 mM NaCl, and 2 mg/mL N,N-dimethylcasein) and 5 μL dithiothreitol (20 mM) at 37 °C followed by the addition of 2 μL of human FXIIIa (0.3 μM) and incubation for 10 min. The activity of FXIIIa was monitored following the addition of 5 μL of dansylcadaverine (2 mM) by measuring the initial rate of increase in fluorescence emission (λEx. = 360 nm and λEm. = 550 nm). Relative residual FXIIIa activity at each concentration of the inhibitor was calculated from the ratio of FXIIIa activity in the presence and absence of the inhibitor. Logistic eq 1 was used to fit the concentration dependence of residual FXIIIa activity to obtain the potency (IC50) and efficacy (ΔY%) of inhibition. [drawing 1] 1
This equation defines Y as the ratio of residual FXIIIa activity with the inhibitor present compared to its absence. YM represents the maximum possible value of residual FXIIIa activity, while YO denotes the minimum possible value. IC50 signifies the concentration of the inhibitor causing 50% enzyme activity inhibition, and HS represents the Hill slope. Determination of YM, YO, IC50, and HS values is achieved through nonlinear curve fitting of the experimental data.

SMILES	APTT2X (concentration required to double APTT) (normal human plasma) [µM]	HS (Hill slope), FXIIIa inhibition (FXIIIa)	IC50 (FXIIIa) [µM]	concentration to double APTT as fold of the FXIIIa-IC50 (normal human plasma) [fold]
Nc1c(S(=O)(=O)O)cc(Nc2ccc(Nc3nc(Cl)nc(Nc4ccccc4S(=O)(=O)O)n3)c(S(=O)(=O)O)c2)c2c1C(=O)c1ccccc1C2=O [compound 13]	1187.2 ± 175	0.7 ± 0.03	3.1 ± 0.3	–
Nc1c(/N=N/c2ccc(Nc3nc(Cl)nc(Nc4cccc(S(=O)(=O)O)c4)n3)cc2S(=O)(=O)O)c(S(=O)(=O)O)cc2c(O)c(/N=N/c3ccc(Nc4nc(Cl)nc(Nc5cccc(S(=O)(=O)O)c5)n4)cc3S(=O)(=O)O)ccc12 [compound 14]	583 ± 60	1.1 ± 0.1	5.1 ± 0.3	–
Nc1c(/N=N/c2ccc(S(=O)(=O)CCOS(=O)(=O)O)cc2)c(S(=O)(=O)O)cc2cc(S(=O)(=O)O)c(/N=N/c3ccc(S(=O)(=O)CCOS(=O)(=O)O)cc3)c(O)c12 [compound 16]	704.6 ± 69	0.8 ± 0.1	2.4 ± 0.5	> 290
Cc1cc(-c2ccc(/N=N/c3ccc4c(S(=O)(=O)O)cc(S(=O)(=O)O)c(N)c4c3O)c(C)c2)ccc1/N=N/c1ccc2c(S(=O)(=O)O)cc(S(=O)(=O)O)c(N)c2c1O [compound 18]	224.3 ± 20	1.5 ± 0.6	–	–
COc1cc(-c2ccc(/N=N/c3ccc4c(S(=O)(=O)O)cc(S(=O)(=O)O)c(N)c4c3O)c(OC)c2)ccc1/N=N/c1ccc2c(S(=O)(=O)O)cc(S(=O)(=O)O)c(N)c2c1O [compound 19]	1840.7 ± 88	1.4 ± 0.4	13.9 ± 2.6	–
